We go through 4 molecules from paper PMC8892092 (The Journal of Biological Chemistry, 2022).

For data set [1], the target named is T1, LuHNL (Linum usitatissimum, UniProt P93243, V117T). It counts as binding. Also on record: E. coli SHuffle T7.
In data set [2] the target is T1, LuHNL.
For data set [3], the target named is T1, LuHNL. In kind it is binding. Details: E. coli SHuffle T7. This is another data set of the same source.
In data set [4] the target is LuHNL (Linum usitatissimum, UniProt P93243, V117T/F340A).
The target in data set [5] is T1, LuHNL. In kind it is binding. Also on record: E. coli SHuffle T7. This is another data set of the same source.
Data set [6] concerns the molecule itself. Nature of the data set: crystal structure; X-ray crystal structures of N-His-LuHNL (ligand-free with glycerol, soaked with acetone cyanohydrin, soaked with (rac)-2-butanone cyanohydrin); sitting drop, 20 °C, 0.1 M BIS-TRIS pH 6.5, 20% PEG MME 5,000; space group P2_(1), two dimers per asymmetric unit.

Regarding `CC[C@@](C)(O)C#N` [(R)-BCN, (R)-2-butanone cyanohydrin], in data set [1], the “X-ray crystal structure, 1.72 Å” value was “(R)-2-butanone cyanohydrin (BCN) complexed LuHNL (LuHNL_BCN) were determined”. For orientation: Km means the concentration of substrate that gives half-maximal velocity. On to `CC(C)(O)C#N` [CNH, acetone cyanohydrin], for which the Michaelis-Menten constant (Km) in data set [2] was found to be 2.7 ± 0.3 mM; in data set [4] it was 5.4 ± 2.3 mM. The “X-ray crystal structure, 1.58 Å” value in data set [3] is given as “The structures for acetone cyanohydrin (CNH) complexed LuHNL (LuHNL_CNH)”. In the case of `NC(=O)c1ccc[n+]([C@@H]2O[C@H](COP(=O)(O)OP(=O)(O)OC[C@H]3O[C@@H](n4cnc5c(N)ncnc54)[C@H](O)[C@@H]3O)[C@@H](O)[C@H]2O)c1` [NAD^+], the “X-ray crystal structure, 1.48 Å; NAD+ quantitation” value in data set [5] was “electron density of NAD^+ was observed in the crystal without the addition of exogenous NAD^+”.

B1: Hydroxynitrile lyase from Linum usitatissimum (LuHNL), N-terminally His-tagged (enzyme)
chain: MASLPVSFAKPDKNGVITCKAIMLKEAKLPGMSYADTVQIIDIQVDPPQNVELRVKMLCASVCRTDILTIEGFMAPTQFPKINGHEGVGIIESMGPDTKNFKVGDVIVAPTLGECQTCSSCRSGRTNFCQNYGANESALEPDGTSRFSYIDSDGKKKLLYYKLGCSTWTQYMVVDSNYATKLNEIAPELPPPHGSILSCAFATGYGAVWLDAAVQEGDSVAIFGVGSVGISAVIAAKELKAKQIIVVDRNEYKLKMAMELGATHCINSEKLPEGVTPSQAVRKLTPKEVGVDASIESSGYDVFMNEAMKAAIHGKAKTVITGEGIYENDRIFFDFKDFLFGGNVVGNVTGRVRIHSDFPGLLRKAQEPVIRAGMDKILGYDAATMKCKYEVDIREGTPALLKALEEVENVDCVKLVIKLNDY
modifications: S-nitrosylation of Cys265 proposed from the electron density in the crystal (not detected in LuHNL solution)
notes: Hydroxynitrile lyase from Linum usitatissimum, gene of GenBank AF024588.1 (protein AAB81956.1), which has Thr117; Each subunit holds one NAD+, two Zn2+ and one Mg2+; The gene was cloned between NdeI and BamHI of pET-15b; also called N-His-LuHNL; LuHNL-wild; source: SHuffle T7 Express E. coli, pET-15b, purified (Ni Sepharose, Mono Q)
As a reminder, the stoichiometry N is the number of molecules, sites or subunits per partner or assembly. Take B1: in data set [6], the “stoichiometry N” value is 2.
